Values joined by “and” are separate entries in the source; they are usually repeats but may differ in a detail not shown here. Identical values can stand only once. Like-named read-outs stand apart in the source and are kept apart here. Marks after values point to notes of the source that are not given here.
Key:
CYP2C19 [1] = biological target: T1, CYP2C19 (Homo sapiens, UniProt P33261); assay: Metabolism by recombinantly expressed CYP enzymes; set-up: Entrectinib Metabolism to M5: key to the marks not given beside the values
T1 sequence (P33261 whole entry): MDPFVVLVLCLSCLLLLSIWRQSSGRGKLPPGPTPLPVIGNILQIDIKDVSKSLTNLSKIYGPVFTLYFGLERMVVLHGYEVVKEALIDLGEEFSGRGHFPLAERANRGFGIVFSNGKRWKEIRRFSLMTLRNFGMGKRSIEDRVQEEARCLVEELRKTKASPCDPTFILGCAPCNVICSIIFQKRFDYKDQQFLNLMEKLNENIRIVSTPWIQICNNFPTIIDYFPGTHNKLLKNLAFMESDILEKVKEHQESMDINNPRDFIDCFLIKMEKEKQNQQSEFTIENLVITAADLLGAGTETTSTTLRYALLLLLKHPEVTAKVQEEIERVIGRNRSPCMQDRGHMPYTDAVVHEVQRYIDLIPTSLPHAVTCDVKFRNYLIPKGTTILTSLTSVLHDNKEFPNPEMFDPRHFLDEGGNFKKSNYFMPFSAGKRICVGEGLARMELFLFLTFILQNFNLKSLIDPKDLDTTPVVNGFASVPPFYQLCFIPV

CYP2B6 = biological target: T2, CYP2B6 (Homo sapiens, UniProt P20813); assay: In vitro CYP inhibition in human liver microsomes; assay type: in vitro ADME; set-up: purchased Corning-Gentest
T2 sequence (P20813 1-491): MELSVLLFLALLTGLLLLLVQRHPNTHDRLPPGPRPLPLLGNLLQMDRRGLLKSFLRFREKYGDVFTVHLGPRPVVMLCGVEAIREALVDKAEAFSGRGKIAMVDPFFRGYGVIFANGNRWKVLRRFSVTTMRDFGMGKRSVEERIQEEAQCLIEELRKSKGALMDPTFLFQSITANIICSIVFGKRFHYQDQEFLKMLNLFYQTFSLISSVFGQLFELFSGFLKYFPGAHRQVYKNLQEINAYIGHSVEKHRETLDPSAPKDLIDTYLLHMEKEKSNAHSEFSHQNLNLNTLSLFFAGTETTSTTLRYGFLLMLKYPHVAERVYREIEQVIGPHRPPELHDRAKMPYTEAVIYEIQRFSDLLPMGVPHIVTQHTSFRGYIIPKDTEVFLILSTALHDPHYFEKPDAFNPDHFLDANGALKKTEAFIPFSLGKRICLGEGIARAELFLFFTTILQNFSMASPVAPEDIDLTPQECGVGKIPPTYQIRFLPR

MDR1 (P-gp) = biological target: T3, MDR1 (P-gp) (Homo sapiens, UniProt P08183); assay: In vitro P-gp inhibition; assay type: in vitro ADME
T3 construct: expressed in transfected cells
T3 sequence (P08183 whole entry): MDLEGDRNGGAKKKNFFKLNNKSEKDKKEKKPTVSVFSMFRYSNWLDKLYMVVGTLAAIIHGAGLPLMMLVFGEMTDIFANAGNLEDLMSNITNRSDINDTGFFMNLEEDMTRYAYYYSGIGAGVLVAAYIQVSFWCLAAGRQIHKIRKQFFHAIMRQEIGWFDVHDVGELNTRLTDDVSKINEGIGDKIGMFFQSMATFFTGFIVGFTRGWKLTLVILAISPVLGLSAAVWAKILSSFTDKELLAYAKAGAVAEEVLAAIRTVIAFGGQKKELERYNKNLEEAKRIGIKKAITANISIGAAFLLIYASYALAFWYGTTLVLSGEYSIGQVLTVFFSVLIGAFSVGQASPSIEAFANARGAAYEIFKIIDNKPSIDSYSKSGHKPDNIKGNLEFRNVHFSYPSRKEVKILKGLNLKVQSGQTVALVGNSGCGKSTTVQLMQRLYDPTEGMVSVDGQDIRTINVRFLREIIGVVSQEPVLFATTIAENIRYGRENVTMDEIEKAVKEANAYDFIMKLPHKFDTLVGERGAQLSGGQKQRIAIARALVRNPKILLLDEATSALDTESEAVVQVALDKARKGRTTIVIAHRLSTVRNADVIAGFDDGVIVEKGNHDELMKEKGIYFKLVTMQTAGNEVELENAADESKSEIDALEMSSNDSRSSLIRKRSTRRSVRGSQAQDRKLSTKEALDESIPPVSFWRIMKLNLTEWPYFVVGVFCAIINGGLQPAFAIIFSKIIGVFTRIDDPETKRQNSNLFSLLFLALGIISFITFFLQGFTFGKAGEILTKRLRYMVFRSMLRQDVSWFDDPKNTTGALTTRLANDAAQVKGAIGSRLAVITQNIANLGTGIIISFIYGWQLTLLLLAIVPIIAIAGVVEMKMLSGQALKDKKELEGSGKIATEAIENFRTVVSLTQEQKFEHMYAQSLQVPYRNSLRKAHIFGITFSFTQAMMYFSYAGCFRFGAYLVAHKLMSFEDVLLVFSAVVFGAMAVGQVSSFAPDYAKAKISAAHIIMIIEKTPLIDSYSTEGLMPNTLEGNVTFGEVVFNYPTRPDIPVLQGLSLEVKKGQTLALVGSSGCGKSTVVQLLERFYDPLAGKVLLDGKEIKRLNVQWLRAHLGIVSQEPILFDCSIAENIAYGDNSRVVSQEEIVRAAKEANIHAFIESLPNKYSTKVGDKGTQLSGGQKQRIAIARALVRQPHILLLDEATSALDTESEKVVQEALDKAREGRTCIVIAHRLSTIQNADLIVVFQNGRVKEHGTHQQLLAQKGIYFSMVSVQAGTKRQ

CYP2C9 = CYP2C9 (Homo sapiens, UniProt P11712); assay: In vitro CYP inhibition in human liver microsomes; assay type: in vitro ADME; set-up: purchased Corning-Gentest
CYP2C9, sequence (P11712 whole entry): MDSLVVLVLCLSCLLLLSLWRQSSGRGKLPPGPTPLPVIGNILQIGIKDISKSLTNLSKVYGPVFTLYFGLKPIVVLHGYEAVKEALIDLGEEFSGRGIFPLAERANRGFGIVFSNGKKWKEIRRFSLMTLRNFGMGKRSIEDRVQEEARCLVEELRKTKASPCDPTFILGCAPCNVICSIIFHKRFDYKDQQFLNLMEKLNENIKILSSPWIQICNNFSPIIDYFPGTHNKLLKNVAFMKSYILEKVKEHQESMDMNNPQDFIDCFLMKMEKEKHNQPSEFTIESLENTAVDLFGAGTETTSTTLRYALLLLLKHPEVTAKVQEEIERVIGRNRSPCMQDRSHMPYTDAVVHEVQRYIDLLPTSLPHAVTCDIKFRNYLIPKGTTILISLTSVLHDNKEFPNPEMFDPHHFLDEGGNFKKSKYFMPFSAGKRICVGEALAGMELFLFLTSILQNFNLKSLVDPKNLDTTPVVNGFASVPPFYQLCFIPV

[2] = Study 1 Cohort 2: single dose entrectinib alone or with rifampin, plasma pharmacokinetics; conditions: for t1/2 / half-life / AUCinf / Cmax: geometric mean (geometric CV); for M5/Entrectinib ratio, AUCinf / M5/Entrectinib ratio, Cmax: arithmetic mean (CV)
Experimental: All doses of study medication were administered at the study center.

[3] = Metabolic profile of entrectinib in pooled human liver microsomes
CYP1A2 = biological target: T4, CYP1A2 (Homo sapiens, UniProt P05177); assay: Metabolism by recombinantly expressed CYP enzymes
T4 sequence (P05177 1-516): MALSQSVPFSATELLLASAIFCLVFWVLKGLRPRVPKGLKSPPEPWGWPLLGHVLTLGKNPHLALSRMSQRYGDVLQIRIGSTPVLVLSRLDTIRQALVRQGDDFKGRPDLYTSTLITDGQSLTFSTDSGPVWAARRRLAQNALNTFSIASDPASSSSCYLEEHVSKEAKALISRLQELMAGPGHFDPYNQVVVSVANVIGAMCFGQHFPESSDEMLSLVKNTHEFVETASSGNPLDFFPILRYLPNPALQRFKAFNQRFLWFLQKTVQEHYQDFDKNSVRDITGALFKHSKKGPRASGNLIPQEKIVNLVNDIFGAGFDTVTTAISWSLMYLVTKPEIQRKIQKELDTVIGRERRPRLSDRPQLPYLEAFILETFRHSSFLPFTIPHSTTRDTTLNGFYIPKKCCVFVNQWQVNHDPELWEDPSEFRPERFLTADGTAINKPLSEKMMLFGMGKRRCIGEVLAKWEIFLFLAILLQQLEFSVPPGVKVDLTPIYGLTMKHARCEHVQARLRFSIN

CYP3A5 = CYP3A5 (Homo sapiens, UniProt P20815); assay: Metabolism by recombinantly expressed CYP enzymes; set-up: Entrectinib Metabolism to M5 / M5 Metabolism: key to the marks not given beside the values
CYP3A5, sequence (P20815 whole entry): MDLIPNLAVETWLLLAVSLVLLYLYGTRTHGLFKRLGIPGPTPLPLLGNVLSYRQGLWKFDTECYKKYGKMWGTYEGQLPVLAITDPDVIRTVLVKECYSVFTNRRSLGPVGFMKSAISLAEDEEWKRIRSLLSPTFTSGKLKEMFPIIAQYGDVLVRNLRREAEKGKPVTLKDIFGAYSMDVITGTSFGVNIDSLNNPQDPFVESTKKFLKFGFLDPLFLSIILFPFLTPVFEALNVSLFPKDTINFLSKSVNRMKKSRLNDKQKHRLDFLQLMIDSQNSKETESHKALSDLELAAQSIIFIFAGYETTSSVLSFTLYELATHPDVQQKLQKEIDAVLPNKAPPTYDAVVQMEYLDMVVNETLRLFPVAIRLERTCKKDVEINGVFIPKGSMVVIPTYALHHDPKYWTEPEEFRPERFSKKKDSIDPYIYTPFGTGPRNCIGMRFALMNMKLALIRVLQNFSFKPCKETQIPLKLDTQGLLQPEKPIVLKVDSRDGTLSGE

CYP2C8 = biological target: T5, CYP2C8 (Homo sapiens, UniProt P10632); assay: Metabolism by recombinantly expressed CYP enzymes
T5 sequence (P10632 1-490): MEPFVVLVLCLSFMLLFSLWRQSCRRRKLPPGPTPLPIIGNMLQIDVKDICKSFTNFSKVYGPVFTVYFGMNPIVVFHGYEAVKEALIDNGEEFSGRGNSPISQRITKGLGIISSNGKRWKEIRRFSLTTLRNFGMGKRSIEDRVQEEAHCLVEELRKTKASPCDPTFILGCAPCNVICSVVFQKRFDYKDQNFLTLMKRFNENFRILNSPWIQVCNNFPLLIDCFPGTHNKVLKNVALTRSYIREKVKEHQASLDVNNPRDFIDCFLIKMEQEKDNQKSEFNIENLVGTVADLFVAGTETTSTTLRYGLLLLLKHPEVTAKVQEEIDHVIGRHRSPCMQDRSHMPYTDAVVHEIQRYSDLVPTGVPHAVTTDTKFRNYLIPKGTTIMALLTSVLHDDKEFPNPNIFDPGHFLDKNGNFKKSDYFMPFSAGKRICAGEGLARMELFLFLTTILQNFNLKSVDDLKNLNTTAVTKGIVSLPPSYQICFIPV

CYP2D6 [4] = biological target: T6, CYP2D6 (Homo sapiens, UniProt P10635); assay: In vitro CYP inhibition in human liver microsomes; assay type: in vitro ADME; set-up: purchased Corning-Gentest
T6 sequence (P10635 whole entry): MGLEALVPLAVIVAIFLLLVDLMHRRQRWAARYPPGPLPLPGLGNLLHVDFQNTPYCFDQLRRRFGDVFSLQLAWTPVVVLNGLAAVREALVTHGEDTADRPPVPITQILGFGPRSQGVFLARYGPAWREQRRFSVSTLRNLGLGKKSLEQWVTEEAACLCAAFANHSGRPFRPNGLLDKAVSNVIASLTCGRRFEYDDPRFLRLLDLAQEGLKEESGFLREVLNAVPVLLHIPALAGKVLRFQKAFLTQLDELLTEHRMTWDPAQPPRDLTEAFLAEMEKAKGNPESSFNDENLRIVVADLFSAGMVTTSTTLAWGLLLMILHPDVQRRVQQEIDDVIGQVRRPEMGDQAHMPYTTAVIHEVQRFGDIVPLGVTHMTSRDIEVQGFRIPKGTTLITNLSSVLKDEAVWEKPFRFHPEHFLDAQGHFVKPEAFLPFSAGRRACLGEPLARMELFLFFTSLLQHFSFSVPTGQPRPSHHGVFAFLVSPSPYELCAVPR

CYP3A4 = CYP3A4 (Homo sapiens, UniProt P08684); assay: Metabolism by recombinantly expressed CYP enzymes; set-up: key to the marks not given beside the values
CYP3A4, sequence (P08684 whole entry): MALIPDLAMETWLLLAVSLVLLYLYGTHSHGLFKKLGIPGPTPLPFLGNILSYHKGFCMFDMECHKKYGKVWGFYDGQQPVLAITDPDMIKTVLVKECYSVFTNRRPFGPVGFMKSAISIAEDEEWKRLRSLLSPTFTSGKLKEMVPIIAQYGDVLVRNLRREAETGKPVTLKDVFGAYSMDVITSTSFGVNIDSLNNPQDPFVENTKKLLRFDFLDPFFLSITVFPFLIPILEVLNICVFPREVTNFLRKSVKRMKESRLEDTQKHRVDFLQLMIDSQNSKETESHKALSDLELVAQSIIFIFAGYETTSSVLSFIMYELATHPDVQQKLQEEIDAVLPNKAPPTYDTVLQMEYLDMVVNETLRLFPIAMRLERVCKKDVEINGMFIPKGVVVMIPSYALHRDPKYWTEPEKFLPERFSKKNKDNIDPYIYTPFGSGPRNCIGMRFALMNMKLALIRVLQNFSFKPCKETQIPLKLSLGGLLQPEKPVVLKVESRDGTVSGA

CYP3A4/5 = assay: In vitro CYP inhibition (direct and time-dependent) in human liver microsomes; assay type: in vitro ADME
CYP2D6 [5] = biological target: T6, CYP2D6; assay: Metabolism by recombinantly expressed CYP enzymes
CYP2C19 [6] = biological target: T1, CYP2C19; assay: In vitro CYP inhibition in human liver microsomes; assay type: in vitro ADME; set-up: purchased Corning-Gentest
[7] = set-up: method as in Roche data on file; conditions: human plasma; ref Roche data on file; cited from earlier work
CYP2C19 [8] = assay: Induction of CYP enzymes in human hepatocytes; conditions: percent of positive control
Experimental: In vitro induction of CYP mRNA (CYPs 1A2, 2C8, 2C9 and 3A4) or enzyme activity (CYPs 1A2, 2C19 and 3A4) was assessed in human hepatocytes.

[9] = Entrectinib 600 mg with rifampin 600 mg QD
[10] = Entrectinib 600 mg with rifampin

Compound: CN1CCN(c2ccc(C(=O)Nc3n[nH]c4ccc(Cc5cc(F)cc(F)c5)cc34)c(NC3CCOCC3)c2)CC1 [Entrectinib]
- Entrectinib Metabolism to M5 (CYP2C19 [1]): ++
- Entrectinib Metabolism to other Products (CYP2C19 [1]): -
- IC50 (CYP2B6): > 10 µM
- IC50 (MDR1 (P-gp)): 1.33 µM and 1.3 µM
- IC50 (CYP2C9): > 10 µM
- t1/2 ([2]; Entrectinib 600 mg alone): 16.7 (16%) h
- t1/2 [2, 9]: 9.9 (26%) h
- decrease of AUCinf ([2]; entrectinib coadministered with rifampin vs alone): 77%
- Tmax ([2]; human, in vivo, 600 mg): 2.0 (2.0, 5.0) h
- Tmax ([2]; human, in vivo, 600 mg, Tmax): 3.5 h
- half-life ([2]; human, in vivo, 600 mg, t1/2, Entrectinib 600 mg alone): 17 h
- half-life ([2]; human, in vivo, 600 mg, t1/2, Entrectinib 600 mg with rifampin 600 mg QD): 10 h
- parent remained ([3]; 60 min incubation, pooled human liver microsomes with NADPH): 47%
- Entrectinib Metabolism to M5 (CYP1A2): -
- Entrectinib Metabolism to other Products (CYP1A2): -
- Entrectinib Metabolism to M5 (CYP3A5): ++
- Entrectinib Metabolism to other Products (CYP3A5): +
- Entrectinib Metabolism to M5 (CYP2C8): +
- Entrectinib Metabolism to other Products (CYP2C8): +
- IC50 (CYP2D6 [4]): > 10 µM
- Entrectinib Metabolism to M5 (CYP3A4): +++
- Entrectinib Metabolism to other Products (CYP3A4): +++
- IC50 (CYP3A4/5; human, microsomes): 2 µM
- Entrectinib Metabolism to M5 (CYP2D6 [5]): +
- Entrectinib Metabolism to other Products (CYP2D6 [5]): -
- IC50 (CYP2C19 [6]): > 10 µM

Compound: O=C(Nc1n[nH]c2ccc(Cc3cc(F)cc(F)c3)cc12)c1ccc(N2CCNCC2)cc1NC1CCOCC1 [M5]
- M5 Metabolism (CYP2C19 [1]): -
- IC50 (CYP2B6): > 10 µM
- IC50 (MDR1 (P-gp)): 10.1 µM and 10 µM
- IC50 (CYP2C9): > 10 µM
- AUCinf ([2]; Entrectinib 600 mg alone, single dose, healthy subjects, fasted): 11,000 (44%) nM•h
- M5/Entrectinib ratio, AUCinf ([2]; Entrectinib 600 mg alone): 0.337 (56%)
- M5/Entrectinib ratio, Cmax ([2]; Entrectinib 600 mg alone): 0.234 (59%)
- Cmax ([2]; Entrectinib 600 mg alone): 383 nM
- t1/2 ([2]; Entrectinib 600 mg alone): 33.8 (12%) h
- Tmax ([2]; Entrectinib 600 mg alone, median (minimum, maximum)): 5.0 (4.0, 5.0) h
- AUCinf [2, 9]: 1530 (28%) nM•h
- Cmax [2, 9]: 108 nM
- t1/2 [2, 9]: 31.1 (28%) h
- Tmax ([2]; Entrectinib 600 mg with rifampin 600 mg QD, median (minimum, maximum)): 3.0 (2.0, 6.0) h
- M5/Entrectinib ratio, AUCinf [2, 10]: 0.187 (28%)
- M5/Entrectinib ratio, Cmax [2, 10]: 0.136 (23%)
- M5 exposure as share of entrectinib exposure (mean M5/entrectinib ratio for AUCinf) ([2]; entrectinib 600 mg alone): approximately 34%
- M5 exposure as share of entrectinib exposure (mean M5/entrectinib ratio for AUCinf) ([2]; entrectinib 600 mg coadministered with rifampin): 19%
- mean t1/2 ([2]; following entrectinib alone and with rifampin): 31 to 34 h
- share of [14C]entrectinib-derived radioactivity ([3]; human liver microsomes): 28%
- M5 Metabolism (CYP1A2): -
- M5 Metabolism (CYP3A5): ++
- M5 Metabolism (CYP2C8): -
- unbound fraction [7]: < 1%
- IC50 (CYP2D6 [4]): > 10 µM
- M5 Metabolism (CYP3A4): +++
- Relative Effectiveness ± SD Based on CYP Activity (CYP2C19 [8]; M5 0.5 µM): -1.21% ±0.94
- Relative Effectiveness ± SD Based on CYP Activity (CYP2C19 [8]; M5 2.5 µM): -3.22% ±3.41
- Relative Effectiveness ± SD Based on CYP Activity (CYP2C19 [8]; M5 10 µM, n=2): -9.87% ^a
- IC50 (CYP3A4/5; human liver microsomes, read-out: IC50): > 10 µM
- M5 Metabolism (CYP2D6 [5]): -
- IC50 (CYP2C19 [6]): > 10 µM

Reference: article PMC8763936 (Investigational New Drugs, 2021)
